Measured values published in patent US10695347B2, “Pyrimidine derivative and use thereof” (Hubei Bio-Pharmaceutical Industrial Technological Institute …, priority 2015, dated 2020).
Where two headings read alike, the source gives them in different places.

What was measured:
[1] = biological target: ALK L1196M (Homo sapiens (Human), UniProt Q9UM73, L1196M); experiment: Inhibition of ALK L1196M kinase activity (Caliper mobility shift); format: biochemical
Protocol: (§1) Inhibition of Compound I Against ALK Kinase Activity
(§2) • I. Preparation of 1× kinase buffer and stop buffer
(§3) 1) 1× Kinase Buffer • 50 mM HEPES. pH 7.5 • 0.0015% Brij-35 • 10 mM MgCl2 • 2 mM DTT • 2) stop buffer • 100 mM HEPES, pH 7.5 • 0.015% Brij-35 • 0.2% Coating Reagent #3 • 50 mM EDTA
(§4) 2. Prepare a Compound Solution to be Tested • Step 2.1 Dilute the compound to 50× of the final desired highest inhibitor concentration in reaction by 100% DMSO. Transfer 100 μl of this compound dilution to a well in a 96-well plate. For example, if desired highest inhibitor concentration is 1 μM, then prepare 50 μM of compound DMSO solution in this step.
(§5) Step 2.2 Further dilute said compound dilution by 3-fold in series, thus obtain 10 concentrations.
(§6) Step 2.3 Add 100 μl of 100% DMSO to two empty wells for no compound control and no enzyme control in the same 96-well plate. Mark the plate as source plate.
(§7) Step 2.4 Prepare an intermediate plate
(§8) Transfer 10 μl of each compound from the source plate to a new 96-well plate as the intermediate plate.
(§9) Add 90 μl of 1× kinase buffer to each well of the intermediate plate. Mix the compounds in the intermediate plate for 10 min on a shaker.
(§10) Transfer 5 μl of each well from the 96-well intermediate plate to a 384-well plate in duplicate. For example, A1 of the 96-well plate is transferred to A1 and A2 of the 384-well plate. A2 of the 96-well plate is transferred to A3 and A4 of the 384-well plate, and so on.
(§11) 4.1 Prepare a 2.5× kinase solution
(§12) Add kinase in 1× kinase base buffer, thus obtain the 2.5× kinase solution.
(§13) 4.2 Prepare a 2.5× peptide solution
(§14) 4.3 In each well of the assay plate obtained in step 3, there was 5 μL of the compound in 10% DMSO.
(§15) 4.4 Transfer the 2.5× enzyme solution to the assay plate.
(§16) 4.5 Incubate at room temperature for 10 min.
(§17) 4.6 Transfer the 2.5× peptide solution to the assay plate.
(§18) 4.7 Kinase reaction and stop
(§19) Incubate at 28° C. for 20 min.
(§20) Add 25 μl of stop buffer to stop reaction.
(§21) Conversion rate of the kinase was read via the Caliper.
(§22) 6.1 Copy conversion data from Caliper program.
(§23) 6.2 Convert conversion values to inhibition values with the following formula: Percent inhibition=(max−conversion)/(max−min)*100
(§24) where “max” stands for DMSO control; and “min” stands for low control.
(§25) 6.3 Fit the data in XLfit excel add-in version 4.3.1 and obtain IC50 values according to the following formula: Y=Bottom+(Top−Bottom)/[…].

[2] = biological target: ALK (Homo sapiens (Human), UniProt Q9UM73); experiment: Inhibition of ALK kinase activity (Caliper mobility shift); format: biochemical
Chain of ALK (Q9UM73 19-1620): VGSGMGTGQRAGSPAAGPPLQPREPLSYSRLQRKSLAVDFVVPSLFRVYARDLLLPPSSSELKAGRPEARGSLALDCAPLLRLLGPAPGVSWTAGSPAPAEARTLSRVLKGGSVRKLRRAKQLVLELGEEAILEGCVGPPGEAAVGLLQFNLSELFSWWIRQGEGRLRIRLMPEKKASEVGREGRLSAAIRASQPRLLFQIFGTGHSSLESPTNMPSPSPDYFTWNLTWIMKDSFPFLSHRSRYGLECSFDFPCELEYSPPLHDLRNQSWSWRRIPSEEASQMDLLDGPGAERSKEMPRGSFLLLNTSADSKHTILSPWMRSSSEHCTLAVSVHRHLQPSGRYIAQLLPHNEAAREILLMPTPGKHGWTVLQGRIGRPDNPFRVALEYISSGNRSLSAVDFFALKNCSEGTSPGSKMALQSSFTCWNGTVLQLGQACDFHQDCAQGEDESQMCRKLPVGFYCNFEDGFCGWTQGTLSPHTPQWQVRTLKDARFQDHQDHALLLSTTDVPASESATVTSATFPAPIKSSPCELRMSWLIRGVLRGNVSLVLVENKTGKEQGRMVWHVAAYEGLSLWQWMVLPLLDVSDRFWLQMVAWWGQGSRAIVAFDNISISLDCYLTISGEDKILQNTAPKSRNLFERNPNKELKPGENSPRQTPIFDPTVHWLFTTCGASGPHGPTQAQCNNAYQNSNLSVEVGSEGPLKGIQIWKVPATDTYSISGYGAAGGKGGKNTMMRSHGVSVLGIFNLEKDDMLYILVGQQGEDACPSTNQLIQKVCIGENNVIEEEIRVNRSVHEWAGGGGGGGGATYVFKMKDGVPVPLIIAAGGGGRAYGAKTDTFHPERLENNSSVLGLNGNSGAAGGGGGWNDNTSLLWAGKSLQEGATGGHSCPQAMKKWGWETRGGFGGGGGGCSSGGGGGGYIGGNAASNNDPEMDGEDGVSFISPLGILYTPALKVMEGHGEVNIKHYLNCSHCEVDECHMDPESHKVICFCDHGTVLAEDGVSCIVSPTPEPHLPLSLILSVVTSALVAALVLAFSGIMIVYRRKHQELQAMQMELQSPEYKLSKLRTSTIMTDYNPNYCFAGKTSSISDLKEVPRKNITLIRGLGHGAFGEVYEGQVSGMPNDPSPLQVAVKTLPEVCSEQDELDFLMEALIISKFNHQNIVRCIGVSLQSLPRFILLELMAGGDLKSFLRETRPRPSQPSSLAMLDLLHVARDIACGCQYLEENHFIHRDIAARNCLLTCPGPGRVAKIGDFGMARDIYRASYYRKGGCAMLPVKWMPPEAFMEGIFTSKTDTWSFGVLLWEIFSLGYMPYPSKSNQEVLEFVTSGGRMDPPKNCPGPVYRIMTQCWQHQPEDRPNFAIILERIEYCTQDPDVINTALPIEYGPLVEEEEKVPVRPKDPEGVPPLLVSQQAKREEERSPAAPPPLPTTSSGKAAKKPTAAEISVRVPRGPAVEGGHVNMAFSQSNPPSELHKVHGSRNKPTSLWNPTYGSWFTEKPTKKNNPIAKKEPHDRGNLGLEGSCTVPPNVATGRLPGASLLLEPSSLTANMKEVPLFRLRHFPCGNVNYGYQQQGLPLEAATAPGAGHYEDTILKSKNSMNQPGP
Protocol: as §1, §2, §3, §4, §5, §6, §7, §8, §9, §10, §11, §12, §13, §14, §15, §16, §17, §18, §19, §20, §21, §22, §23, §24, §25

[3] = system: Ba/F3 EML4-ALK cells; experiment: Suppression of Ba/F3 EML4-ALK cell proliferation (CellTiter-Glo); format: cell-based; settings: 3 days incubation
Description: Cell media: RPMI-1640 medium, fetal calf serum (FCS), antibiotics (Penicillin-Streptomycin), IL-3, puromycin
Cell line: Ba/F3 EML4-ALK
Assay reagent: Cell Viability Assay Kit Celliter-Glo
(§26) Others: a 96-well plate, a 384-well plate, DMSO
(§27) As the amount of ATP can indicate the number of living cells directly, the living cells in medium are able to be quantified by determining the ATP level. In our experiment, we use a cell viability assay kit to quantify the living cells, which utilizes UltraGlow luciferase to generate a stable glow signal in the presence of ATP which is produced by metabolism of living cells, such as respiration. Specifically, a reagent CellTiter-Glo™ was added into cell culture media, and then the luminescent intensity was determined to measure proliferation of cells, as the luminescent intensity is in direct proportion to the ATP level which correlates positively to the number of living cells. The test plate was assayed by the Envision (PE).
(§28) Step 3.1 Culturing test cells
Ba/F3 EML4-ALK cells were planted into a 384-well plate, with almost 300 cells per well. The plate was placed in a carbon dioxide incubator overnight.
(§29) Step 3.2 Preparation of the compounds to be tested
10 concentrations of the working solutions were obtained in duplicate by dilution in 3-fold series with BRAVO.
Step 3.3 Mixing the compound to be tested with the test cells
The compounds to be tested at individual working concentrations were transferred into corresponding wells in the 384-well plate in the step 3.1, with 5 μM as the initial working concentration, and then the 384-well plate was incubated in the carbon dioxide incubator for 3 days.
To each well of the 384-well plate was added the reagent Promega CellTiter-Glo, and incubated at room temperature for 10 minutes to stabilize the luminescence signal. The results were read by the PerkinElmer Envision Multi-mode Plate Reader.

[4] = system: Karpas299 cells; experiment: Suppression of Karpas299 cell proliferation (CellTiter-Glo); format: cell-based; settings: 3 days incubation, read-out: Inhibition activity on Karpas299 cells IC50
Protocol: as §27, with “culture” for “medium”, “living-cell testing” for “cell viability assay”, “tested with” for “assayed by”
Cell media: RPMI-1640 medium, fetal calf serum (FCS), antibiotics (Penicillin-Streptomycin)
Assay reagent: Cell Viability Assay Kit CellTiter-Glo
as §26, §28
Karpas 299 cells were plated into a black 384-well plate, with 2500 cells in 45 μl cell suspension per well. The plate was placed in a carbon dioxide incubator overnight.
as §29
Each compound to be tested was dissolved in DMSO at 10 mM as the stock solution, which was left in a nitrogen-gas tank for storage.
After dilution of 10 μL stock solution (10 mM) into 2.5 mM as a starting working solution, 10 concentrations of the working solutions from 5 μM to 0.25 nM were obtained in duplicate by further dilution in 3-fold series with ECHO.
Step 3.3 Mixing the compound with the test cells
To each well of a new 96-well plate were added 49 μl medium and 1 μl of the compounds to be tested at individual working concentrations (10 concentrations in total). After oscillation,
5 μl of mixture in each well of the 96-well plate was transferred into corresponding wells in the 384-well plate in the step 3.1. The 384-well plate was incubated in the carbon dioxide incubator for 3 days.
To each well of the 384-well plate was added […] reagent Promega CellTiter-Glo. and incubated at room temperature for 10 minutes to stabilize the luminescence signal. The results were read with the PerkinElmer Envision Multi-mode Plate Reader.

Chain of ALK L1196M (Q9UM73 19-1620 L1196M): as the sequence (Q9UM73 19-1620) above, with L1178M counted along it

Compound | IC50 [1] [nM] | IC50 [2] [nM] | IC50 ([3]; Ba/F3 EML4-ALK, 72 h) [nM] | IC50 ([4]; Homo sapiens, KARPAS-299, 72 h) [nM] | IC50 [3] [nM] | IC50 [4] [nM]
CC(C)Oc1cc(N2CCC(N(C)C)CC2)ccc1Nc1ncc(Cl)c(Nc2ccsc2S(=O)(=O)C(C)C)n1 [Compound I-82, 5-chloro-N^2-(4-(4-(dimethylamino)piperidin-1-yl)-2-isopropoxyphenyl)-N^4-(2-(isopropylsulfonyl)thiophen-3-yl) pyrimidine-2,4-diamine] | < 1 | < 1 | 20 to 100 | < 50 | – | –
COc1cc(C2=CCN(C)CC2)ccc1Nc1ncc(Cl)c(Nc2cccnc2S(=O)(=O)C(C)C)n1 [Compound I-84, 5-chloro-N^4-(2-(isopropylsulfonyl)pyridin-3-yl)-N^2-(2-methoxy-4-(1-methyl-1,2,3,6-tetrahydropyridin-4-yl)phenyl) pyrimidine-2,4-diamine] | 1 to 10 | 1 to 10 | 20 to 100 | < 50 | – | –
COc1cc(C2=CCN(C(C)C)CC2)ccc1Nc1ncc(Cl)c(Nc2cccnc2S(=O)(=O)C(C)C)n1 [Compound I-85, 5-chloro-N^2-(4-(1-isopropyl-1,2,3,6-tetrahydropyridin-4-yl)-2-methoxyphenyl)-N^4-(2-(isopropylsulfonyl)pyridin-3-yl) pyrimidine-2,4-diamine] | 1 to 10 | 1 to 10 | 20 to 100 | < 50 | – | –
COc1cc(C2=CCN(C(C)C)CC2)ccc1Nc1ncc(Cl)c(Nc2ccsc2S(=O)(=O)C(C)C)n1 [Compound I-86, 5-chloro-N^2-(4-(1-isopropyl-1,2,3,6-tetrahydropyridin-4-yl)-2-methoxyphenyl)-N^4-(2-(isopropylsulfonyl)thiophen-3-yl) pyrimidine-2,4-diamine] | < 1 | < 1 | < 20 | < 50 | – | –
COc1cc(N2CCN(C(C)C)CC2)c(C)cc1Nc1ncc(Cl)c(Nc2cccnc2S(=O)(=O)C(C)C)n1 [Compound I-88] | 1 to 10 | 1 to 10 | 20 to 100 | 50 to 100 | – | –
CC(C)Oc1cc(N2CCC(N(C)C)CC2)ccc1Nc1ncc(Cl)c(Nc2cccnc2S(=O)(=O)C(C)C)n1 [Compound I-91] | 1 to 10 | 1 to 10 | < 20 | 50 to 100 | – | –
CCOc1cc(N2CCC(N(C)C)CC2)ccc1Nc1ncc(Cl)c(Nc2cccnc2S(=O)(=O)C(C)C)n1 [Compound I-92] | 1 to 10 | 1 to 10 | < 20 | 50 to 100 | – | –
COc1cc(N2CCC(N(C)C)CC2)c(C)cc1Nc1ncc(Cl)c(Nc2cccnc2S(=O)(=O)C(C)C)n1 [Compound I-98, 5-chloro-N^2-(4-(4-(dimethylamino)piperidin-1-yl)-2-methoxy-5-methylphenyl)-N^4-(2-(isopropylsulfonyl)pyridin-3-yl) pyrimidine-2,4-diamine] | < 1 | < 1 | 20 to 100 | < 50 | – | –
CC(C)S(=O)(=O)c1ncccc1Nc1nc(Nc2ccc(N3CCC(N(C)C)CC3)cc2OC(F)F)ncc1Cl [Compound I-100, 5-chloro-N^2-(2-(difluoromethoxy)-4-(4-(dimethylamino)piperidin-1-yl)phenyl)-N^4-(2-(isopropylsulfonyl)pyridin-3-yl) pyrimidine-2,4-diamine] | 1 to 10 | 1 to 10 | 20 to 100 | < 50 | – | –
Cc1cc(Nc2ncc(Cl)c(Nc3ccccc3S(=O)(=O)C(C)C)n2)c(OC(F)F)cc1N1CCC(N(C)C)CC1 [Compound I-102, 5-chloro-N^2-(2-(difluoromethoxy)-4-(4-(dimethylamino)piperidin-1-yl)-5-methylphenyl)-N^4-(2-(isopropylsulfonyl)phenyl) pyrimidine-2,4-diamine] | < 1 | 1 to 10 | < 20 | 50 to 100 | – | –
COc1cc(CN2CCC(N(C)C)CC2)ccc1Nc1ncc(Cl)c(Nc2ccccc2S(=O)(=O)C(C)C)n1 [Compound I-109] | 1 to 10 | 1 to 10 | < 20 | 50 to 100 | – | –
COc1cc(CN2CCC(N(C)C)CC2)ccc1Nc1ncc(Cl)c(Nc2ccccc2S(=O)(=O)C(C)C)n1 [Compound I-110] | 1 to 10 | 1 to 10 | – | – | < 20 | < 50
COc1cc(N2CCC(N(C)C)CC2)ccc1Nc1ncc(OC(F)F)c(Nc2ccccc2S(=O)(=O)C(C)C)n1 [Compound I-111, 5-(difluoromethoxy)-N^2-(4-(4-(dimethylamino)piperidin-1-yl)-2-methoxyphenyl)-N^4-(2-(isopropylsulfonyl)phenyl) pyrimidine-2,4-diamine] | < 1 | < 1 | < 20 | < 50 | – | –
COc1cc(N2CCC(N(C)C)CC2)c(C)cc1Nc1ncc(OC(F)F)c(Nc2ccccc2S(=O)(=O)C(C)C)n1 [Compound I-112, 5-(difluoromethoxy)-N^2-(4-(4-(dimethylamino)piperidin-1-yl)-2-methoxy-5-methylphenyl)-N^4-(2-(isopropylsulfonyl)phenyl) pyrimidine-2,4-diamine] | < 1 | < 1 | < 20 | < 50 | – | –
CC(C)Oc1cc(N2CCC(N(C)C)CC2)ccc1Nc1ncc(OC(F)F)c(Nc2ccccc2S(=O)(=O)C(C)C)n1 [Compound I-113, 5-(difluoromethoxy)-N^2-(4-(4-(dimethylamino)piperidin-1-yl)-2-isopropoxyphenyl)-N^4-(2-(isopropylsulfonyl)phenyl) pyrimidine-2,4-diamine] | < 1 | < 1 | < 20 | < 50 | – | –
